# Literature values in patent US20260284018A1, “DUAL INHIBITORS OF DYRK1A AND 5-HT2 FOR TREATING A BRAIN DISORDER” (THE REGENTS OF THE UNIVERSITY OF CALIFORNIA, priority 2023, published 2026).
# What was measured:
# Settings in all cases: 10 μM; cited from earlier work
# RAF1 = molecular target: T1, RAF1 (Homo sapiens, UniProt P04049)
# T1 construct: purchased Eurofins DiscoverX KINOMEscan scanEDGE
# FAK = molecular target: T2, FAK (Homo sapiens, UniProt Q05397)
# T2 construct: purchased Eurofins DiscoverX
# T2 sequence (Q05397 whole entry): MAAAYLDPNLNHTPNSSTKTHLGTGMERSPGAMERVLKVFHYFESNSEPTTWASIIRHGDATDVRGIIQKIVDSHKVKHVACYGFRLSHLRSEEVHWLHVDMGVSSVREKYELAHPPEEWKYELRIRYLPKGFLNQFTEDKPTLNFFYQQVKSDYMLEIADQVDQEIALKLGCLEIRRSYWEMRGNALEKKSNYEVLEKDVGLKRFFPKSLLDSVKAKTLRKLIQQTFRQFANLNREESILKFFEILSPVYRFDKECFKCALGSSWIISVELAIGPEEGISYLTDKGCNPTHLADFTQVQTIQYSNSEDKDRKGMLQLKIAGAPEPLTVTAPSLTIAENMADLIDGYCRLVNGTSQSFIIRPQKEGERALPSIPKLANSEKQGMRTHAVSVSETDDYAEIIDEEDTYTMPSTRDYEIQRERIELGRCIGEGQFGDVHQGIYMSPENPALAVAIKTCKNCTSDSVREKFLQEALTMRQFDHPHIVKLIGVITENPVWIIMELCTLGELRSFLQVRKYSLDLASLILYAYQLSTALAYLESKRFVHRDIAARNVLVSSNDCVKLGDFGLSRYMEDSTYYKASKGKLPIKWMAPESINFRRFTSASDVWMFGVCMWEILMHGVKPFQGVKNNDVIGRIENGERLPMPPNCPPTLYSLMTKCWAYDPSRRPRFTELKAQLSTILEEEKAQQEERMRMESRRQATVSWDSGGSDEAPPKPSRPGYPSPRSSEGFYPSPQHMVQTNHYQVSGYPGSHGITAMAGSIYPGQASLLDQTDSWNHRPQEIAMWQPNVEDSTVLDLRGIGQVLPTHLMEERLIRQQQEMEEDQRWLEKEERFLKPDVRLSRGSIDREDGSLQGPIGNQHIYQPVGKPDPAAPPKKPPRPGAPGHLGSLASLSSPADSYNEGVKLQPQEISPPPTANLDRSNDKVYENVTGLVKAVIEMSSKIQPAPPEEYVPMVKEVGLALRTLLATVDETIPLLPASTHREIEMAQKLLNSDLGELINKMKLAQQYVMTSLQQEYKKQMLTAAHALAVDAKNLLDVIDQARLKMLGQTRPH
# TIE2 = molecular target: T3, TIE2 (Homo sapiens, UniProt Q02763)
# T3 construct: purchased Eurofins DiscoverX KINOMEscan scanEDGE
# T3 sequence (Q02763 23-1124): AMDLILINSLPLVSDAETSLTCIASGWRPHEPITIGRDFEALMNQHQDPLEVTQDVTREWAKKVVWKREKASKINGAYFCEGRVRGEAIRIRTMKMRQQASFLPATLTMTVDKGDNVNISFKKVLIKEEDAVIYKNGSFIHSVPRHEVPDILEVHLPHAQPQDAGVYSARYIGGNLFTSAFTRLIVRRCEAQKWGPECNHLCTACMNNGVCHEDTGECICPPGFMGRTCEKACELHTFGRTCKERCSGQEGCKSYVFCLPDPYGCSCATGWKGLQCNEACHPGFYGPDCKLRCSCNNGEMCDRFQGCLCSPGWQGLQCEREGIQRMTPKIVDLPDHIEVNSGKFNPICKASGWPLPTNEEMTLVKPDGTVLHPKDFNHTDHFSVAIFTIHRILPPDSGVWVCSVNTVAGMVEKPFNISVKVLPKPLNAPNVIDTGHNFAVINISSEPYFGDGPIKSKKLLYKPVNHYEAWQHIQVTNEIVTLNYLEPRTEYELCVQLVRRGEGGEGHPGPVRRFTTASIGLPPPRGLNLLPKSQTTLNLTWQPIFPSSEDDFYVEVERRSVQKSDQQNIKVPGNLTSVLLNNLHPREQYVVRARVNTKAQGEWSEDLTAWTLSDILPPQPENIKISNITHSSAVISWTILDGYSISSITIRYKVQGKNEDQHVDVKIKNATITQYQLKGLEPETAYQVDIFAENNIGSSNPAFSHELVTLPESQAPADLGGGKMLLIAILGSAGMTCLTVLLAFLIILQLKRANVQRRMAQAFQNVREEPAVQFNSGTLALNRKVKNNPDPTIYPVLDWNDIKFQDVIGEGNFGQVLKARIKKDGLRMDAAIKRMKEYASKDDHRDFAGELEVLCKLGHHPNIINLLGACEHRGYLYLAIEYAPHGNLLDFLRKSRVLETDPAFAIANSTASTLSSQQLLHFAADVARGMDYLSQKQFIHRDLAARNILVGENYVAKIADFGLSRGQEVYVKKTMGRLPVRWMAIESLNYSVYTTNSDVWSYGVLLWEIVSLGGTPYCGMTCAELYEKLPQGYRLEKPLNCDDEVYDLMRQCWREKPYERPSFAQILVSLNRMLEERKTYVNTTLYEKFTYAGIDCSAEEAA
# T1 sequence (P04049 whole entry): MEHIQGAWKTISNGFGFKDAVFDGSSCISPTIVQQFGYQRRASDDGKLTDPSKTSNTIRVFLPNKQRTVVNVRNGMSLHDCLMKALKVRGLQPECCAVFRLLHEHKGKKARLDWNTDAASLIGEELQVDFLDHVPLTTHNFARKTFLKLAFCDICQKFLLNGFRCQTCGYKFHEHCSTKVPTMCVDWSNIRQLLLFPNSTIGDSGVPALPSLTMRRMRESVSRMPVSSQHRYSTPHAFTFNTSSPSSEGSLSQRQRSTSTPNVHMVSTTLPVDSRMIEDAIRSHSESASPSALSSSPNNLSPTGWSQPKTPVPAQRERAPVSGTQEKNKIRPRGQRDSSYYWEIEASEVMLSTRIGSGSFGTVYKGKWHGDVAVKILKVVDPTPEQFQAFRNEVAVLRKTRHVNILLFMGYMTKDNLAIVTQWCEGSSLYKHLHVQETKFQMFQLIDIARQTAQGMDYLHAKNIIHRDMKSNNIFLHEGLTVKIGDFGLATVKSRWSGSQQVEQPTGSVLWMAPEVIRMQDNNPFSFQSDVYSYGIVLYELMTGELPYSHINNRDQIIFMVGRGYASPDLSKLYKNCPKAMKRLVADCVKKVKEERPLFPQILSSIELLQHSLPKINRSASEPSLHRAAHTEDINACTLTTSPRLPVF
smiles,measurement,setting,value
"COc1ccc2c(c1)[nH]c1c(C)nccc12 [Harmine, harmine]",Percent Control,RAF1,89%
same,Percent Control,FAK,100%
same,Percent Control,TIE2,94%
